# From publication PMC9267128, “New 2-[(4-Amino-6-N-substituted-1,3,5-triazin-2-yl)methylthio]-N-(imidazolidin-2-ylidene)-4-chloro-5-methylbenzenesulfonamide Derivatives, Design, Synthesis and Anticancer Evaluation” (International Journal of Molecular Sciences, 2022)
# What was measured:
# [1] = tested on: HaCaT (human keratinocyte cell line); experiment: MTT cell viability assay, non-cancerous HaCaT; assay type: cell-based; details: Homo sapiens, HaCaT, 72 h, 72 h of incubation, non-cancerous keratinocytes
# Experimental: (§1) Compounds 20–162 were evaluated in vitro for their effects on the viability of three cancer cell lines: HCT-116 (colon cancer), MCF-7 (breast cancer) and HeLa (cervical cancer), as well as the non-cancerous keratinocyte cell line (HaCaT). […] Analysis was performed using an MTT assay after 72 h of incubation.
# (§2) All chemicals, if not stated otherwise, were obtained from Sigma–Aldrich (St. Louis, MO, USA). The HCT-116 cell line was purchased from ATCC (ATCC-No: CCL-247), while the MCF-7, HeLa and HaCaT cell lines were purchased from Cell Lines Services (Eppelheim, Germany). Cells were cultured in Dulbecco’s modified Eagle’s medium (DMEM) supplemented with 10% fetal bovine serum, 2 mM glutamine, 100 units/mL penicillin and 100 µg/mL streptomycin. Cultures were maintained in a humidified atmosphere with 5% carbon dioxide at 37 °C in an incubator (Heraceus, HeraCell).
# (§3) Cell viability was examined using the MTT [3-(4,5-dimethylthiazol-2-yl)-2,5-diphenyltetrazolium bromide] assay. Cells were seeded in 96-well plates at a density of 3 × 10^3 cells/well and treated for 72 h with the tested compounds in the concentration range of 1–100 µM. Then, MTT (0.5 mg/mL) was added to the medium and cells were further incubated for 2 h at 37 °C. In the next stage, cells were lysed with DMSO and the absorbance of the formazan solution was measured at 550 nm with a plate reader (1420 multilabel counter, Victor, Jügesheim, Germany). The experiment was performed in triplicate. Values are expressed as the mean ± SD of at least three independent experiments. Cisplatin was used as a positive control.
# [2] = tested on: HCT-116 (colon cancer); experiment: MTT cell viability assay, HCT-116; assay type: cell-based, human; details: Homo sapiens, HCT-116, 72 h, MTT assay, 72 h of incubation
# Experimental: (§4) Analysis was performed using an MTT assay after 72 h of incubation.
# as §2
# as §3, with “experiments.” for “experiments. Cisplatin was used as a positive control.”
# [3] = tested on: MCF-7 (breast cancer); experiment: MTT cell viability assay, MCF-7; assay type: cell-based, human; details: Homo sapiens, MCF7, 72 h, MTT assay, 72 h of incubation
# Experimental: as §1, §2, §3
# [4] = tested on: HeLa (cervical cancer); experiment: MTT cell viability assay, HeLa; assay type: cell-based, human; details: Homo sapiens, HeLa; MTT assay, 72 h of incubation
# Experimental: as §4, §2
# as §3, with “experiments.” for “experiments. Cisplatin was used as a positive control.”
Structure (SMILES),IC50 [2] [µM],IC50 [3] [µM],IC50 [4] [µM],IC50 [1] [µM]
Cc1cc(S(=O)(=O)N=C2NCCN2Cc2ccc(F)cc2)c(SCc2nc(N)nc(N3CCN(c4ccc(Cl)cc4)CC3)n2)cc1Cl [Compound 96],6 ± 0.3,6 ± 0.2,9 ± 0.3,22 ± 1
Cc1cc(S(=O)(=O)N=C2NCCN2Cc2ccccc2)c(SCc2nc(N)nc(N3CCN(c4cccc(C(F)(F)F)c4)CC3)n2)cc1Cl [Compound 61],6.5 ± 0.1,9 ± 0.3,10 ± 0.2,21 ± 1
Cc1cc(S(=O)(=O)N=C2NCCN2Cc2ccccc2)c(SCc2nc(N)nc(N3CCN(c4ccc(C(F)(F)F)cc4)CC3)n2)cc1Cl [Compound 60],8 ± 0.3,14 ± 0.3,9 ± 0.5,23 ± 1
Cc1cc(S(=O)(=O)N=C2NCCN2Cc2ccc(C(F)(F)F)cc2)c(SCc2nc(N)nc(N3CCN(c4ccc(Cl)cc4)CC3)n2)cc1Cl [Compound 136],5 ± 0.1,6 ± 0.3,10 ± 0.4,21 ± 1
Cc1cc(S(=O)(=O)N=C2NCCN2)c(SCc2nc(N)nc(N3CCN(c4ccccc4)CC3)n2)cc1Cl [Compound 31],–,–,16 ± 0.1,26 ± 1
Cc1cc(S(=O)(=O)N=C2NCCN2)c(SCc2nc(N)nc(N3CCOCC3)n2)cc1Cl [Compound 21],350 ± 7,190 ± 2,510 ± 5,–
Cc1cc(S(=O)(=O)N=C2NCCN2Cc2cccc3ccccc23)c(SCc2nc(N)nc(N3CCN(c4ccc(Cl)c(Cl)c4)CC3)n2)cc1Cl [Compound 80],79 ± 2,89 ± 4,98 ± 5,–
Cc1cc(S(=O)(=O)N=C2NCCN2)c(SCc2nc(N)nc(N3CCc4ccccc43)n2)cc1Cl [Compound 23],142 ± 4,130 ± 3,150 ± 2,–
Cc1cc(S(=O)(=O)N=C2NCCN2)c(SCc2nc(N)nc(N(C)c3ccccc3)n2)cc1Cl [Compound 28],58 ± 0.6,45 ± 0.5,80 ± 1,–
Cc1cc(S(=O)(=O)N=C2NCCN2Cc2ccccc2)c(SCc2nc(N)nc(N3CCOCC3)n2)cc1Cl [Compound 46],21 ± 0.2,23 ± 0.7,37 ± 0.4,–
CC1=NN(c2nc(N)nc(CSc3cc(Cl)c(C)cc3S(=O)(=O)N=C3NCCN3)n2)C(C)(C)C1 [Compound 22],140 ± 3,130 ± 4,110 ± 4,–

# The next lines start with results.
IC50 [2] [µM],IC50 [3] [µM],IC50 [4] [µM],Structure (SMILES),IC50 [1] [µM]
6.5 ± 0.3,6.5 ± 0.3,15.5 ± 1,Cc1cc(S(=O)(=O)N=C2NCCN2Cc2cc(C(F)(F)F)cc(C(F)(F)F)c2)c(SCc2nc(N)nc(N3CCN(c4ccccc4F)CC3)n2)cc1Cl [Compound 152],29 ± 1
13 ± 0.5,13 ± 0.8,16.5 ± 1,Cc1cc(S(=O)(=O)N=C2NCCN2Cc2cc(C(F)(F)F)cc(C(F)(F)F)c2)c(SCc2nc(N)nc(N3CCCc4ccccc43)n2)cc1Cl [Compound 145],36 ± 1
17 ± 1,22 ± 0.5,19 ± 0.5,Cc1cc(S(=O)(=O)N=C2NCCN2)c(SCc2nc(N)nc(N3CCC(Cc4ccccc4)CC3)n2)cc1Cl [Compound 43],43 ± 2
46 ± 1,25 ± 1,28 ± 2,Cc1cc(S(=O)(=O)N=C2NCCN2Cc2cccc3ccccc23)c(SCc2nc(N)nc(N(C)c3ccc(Cl)cc3)n2)cc1Cl [Compound 76],99 ± 4
45 ± 2,46 ± 2,46 ± 2,Cc1cc(S(=O)(=O)N=C2NCCN2)c(SCc2nc(N)nc(Nc3ccccc3)n2)cc1Cl [Compound 25],54 ± 2
110 ± 2,220 ± 6,115 ± 7,Cc1cc(S(=O)(=O)N=C2NCCN2)c(SCc2nc(N)nc(N(C)C)n2)cc1Cl [Compound 20],–
94 ± 2,98 ± 5,88 ± 3,Cc1cc(S(=O)(=O)N=C2NCCN2Cc2cccc3ccccc23)c(SCc2nc(N)nc(N3CCN(c4ccc(Cl)cc4)CC3)n2)cc1Cl [Compound 79],–
